{
  "source": "paper PMC12153356",
  "about": "“An antisense oligomer conjugate with unpredicted bactericidal activity against Fusobacterium nucleatum” (mBio, 2025)",
  "tested_on": "F. nucleatum subsp. nucleatum ATCC 23726 (FNN23)",
  "experiment": "CPP-TAMRA uptake by confocal laser scanning microscopy (CLSM)",
  "type": "cell-based, Fusobacterium nucleatum subsp. nucleatum ATCC 23726",
  "conditions": "5 µM CPP-TAMRA, FNN23 10^8 CFU/mL in MHB, 37°C, 10, 30 and 60 min, 100 cells from four images, cytoplasmic signal",
  "from_the_text": "To investigate the efficiency of different cell-penetrating peptides, we excluded a flow cytometry approach to quantify penetration efficiency because upon cell fixation, CPPs were reported to bind to cell membranes and remain attached even after multiple washes, which would result in a false-positive penetration signal in flow cytometry ([118]). Thus, we opted for a microscopy-based investigation with lower throughput but discrimination potential between membrane-associated and cytosolic signals. CPPs were coupled to the fluorophore 5(6)-carboxytetramethylrhodamine (TAMRA) by Peps4LS GmbH, and 200 µM stocks were prepared in house. […] The emission was detected at 685–795 nm for FM 4–64 and 570–620 nm for TAMRA. CLSM images were analyzed using ImageJ. To quantify CPP uptake, 100 cells were chosen out of four images per condition using the bright field image and analyzed for cytosolic TAMRA signal by excluding TAMRA-negative cells and TAMRA signal co-localized with the FM 4–64 signal.",
  "note": "Square brackets hold non-standard residues; d marks the D form. Peptide text beside a SMILES is read from it. * marks the point of attachment. 5TAMRA = CN(C)c1ccc2c(c1)Oc1cc(N(C)C)ccc1C21OC(=O)c2cc(C(=O)*)ccc21; Ahx = NCCCCCC(=O)O; βAla = NCCC(=O)O",
  "data": [
    {"smiles": "CN(C)c1ccc2c(c1)Oc1cc(N(C)C)ccc1C21OC(=O)c2cc(C(=O)N[C@@H](CCCNC(=N)N)C(=O)NCCCCCC(=O)N[C@@H](CCCNC(=N)N)C(=O)N[C@@H](CCCNC(=N)N)C(=O)NCCCCCC(=O)N[C@@H](CCCNC(=N)N)C(=O)N[C@@H](CCCNC(=N)N)C(=O)NCCCCCC(=O)N[C@@H](CCCNC(=N)N)C(=O)N[C@@H](CCCNC(=N)N)C(=O)NCCCCCC(=O)N[C@@H](CCCNC(=N)N)C(=O)NCCCCCC(=O)NCCC(=O)O)ccc21", "note": "[(RXR)4XB-TAMRA] (5TAMRA-R[Ahx]RR[Ahx]RR[Ahx]RR[Ahx]R[Ahx][βAla]-OH)", "values": [
      {"measurement": "TAMRA-positive cells (uptake efficiency)", "result": 100, "unit": "%"}
    ]}
  ]
}
